Measured values reported in patent publication US20250186521A1 (priority 2018, published 2025).

Tests used:
Type in all cases: in vivo, Broiler chickens
[1] = system: mixed E. acervulina, E. maxima, and E. tenella coccidial inoculum; test: Anticoccidial efficacy versus salinomycin (Example 5): performance, average lesion score, total OPG; conditions: 60 g/t
Text: (§1) • 1. No Additive, no Cocci. • 2. No Additive, Cocci. • 3. Salinomycin 60 g/t, Cocci. • 4. Product Z 0.551%, Cocci.
(§2) Cages were blocked by location in the battery with block size equal to the groups (8 cages per block). The study began when the birds were placed (day of hatch, i.e., DOT 0) at which time they were allocated to the experimental cages. Only healthy birds were selected (10 birds/cage).
(§3) Upon arrival, chicks were raised in Petersime battery cages. At placement the birds were fed the various feeds. The Petersime batteries were in an insulated building having a concrete floor and a metal overhead structure. The floor space per animal was 0.51 sq. ft. per bird. The feeder space per bird was 10 birds per 24×3.5-inch feeder. Uniform temperature and illumination was provided.
(§4) An unmedicated commercial chicken feed composition compounded with feedstuffs commonly used in the U.S. poultry industry, such as cereals and proteins, was obtained. The diet was an all-vegetable feed with no antibiotics, organic acids, NSP enzymes, or direct fed microbial. This feed in mash form was fed ad libitum from the date of chick arrival until Day 28 of the study. Experimental feeds augmented with the algal biomass were prepared from this commercial poultry feed. The feeds were mixed to assure a uniform distribution of algal biomass into the mash feed.
Day of hatch male broiler chicks of strain Cobb X Cobb were obtained from Cobb-Vantress, Cleveland, GA. Sets of ten chicks were randomly selected, group weighed and placed into cages. No birds were replaced during the study.
(§5) All birds were weighed by cage on DOT 0, 14, 20 and 28. Feed was weighed in on DOT 0 and remaining feed was weighed on DOT 14, 20, and 28.
Coccidial oocysts inoculation procedures were described. On Day 14 of the study all birds except Tl orally received a mixed E. acervulina, E. maxima, and E. tenella coccidial inoculum diluted to a 1 ml volume (p.o.). Inoculum level attempted to produce a moderate challenge.
(§6) On DOT 20, five birds from each cage were selected, sacrificed, weighed, and examined for the degree of presence of coccidia lesions. If less than five birds were present at time of scoring, all remaining birds within the cage were scored. The Johnson and Reid, 1970 method of coccidiosis lesion scoring was used to score the infected region(s) of the intestine. The scoring was based on a 0 to 4 score, with 0 being normal and 4 being the most severe.
(§7) Day 19 (Day 5 post challenge) drop pans from all cages were cleaned. Day 20 (Day 6 pc) mixed feces were collected from each cage. Each sample was examined for the number of oocysts per gram fecal material by fecal floatation.
(§8) Means for cage weight gain, feed consumption, feed conversion rate, lesion scores, opgs, and mortality were calculated.

[2] = system: Eimeria acervulina; test: Anticoccidial efficacy (Example 5): lesion score and OPG, Eimeria acervulina; conditions: 60 g/t, infected
Text: as §1, §2
as §4, with “mash feed. […]” for “mash feed.”
(§9) On DOT 20, five birds from each cage were selected, sacrificed, weighed, and examined for the degree of presence of coccidia lesions. If less than five birds were present at time of scoring, all remaining birds within the cage were scored. […]
as §8

[3] = system: Eimeria maxima; test: Anticoccidial efficacy (Example 5): lesion score and OPG, Eimeria maxima; conditions: 60 g/t, infected
Text: as §1, §2
as §4, with “mash feed. […]” for “mash feed.”
as §9, §8

[4] = system: Eimeria tenella; test: Anticoccidial efficacy (Example 5): lesion score and OPG, Eimeria tenella; conditions: 60 g/t, infected
Text: as §1, §2
as §4, with “mash feed. […]” for “mash feed.”
as §9, §8

[5] = system: mixed E. acervulina, E. maxima, and E. tenella coccidial inoculum; test: Cocci Test (Example 6): performance, average lesion score, total OPG; conditions: 1.0 lb/t
Text: (§10) • 1. No Additive, no Cocci • 2. No Additive, Cocci • 3. Salinomycin 60 g/t, Cocci • 4.
(§11) Each group was replicated 10 times. Cages were blocked by location in the battery with block size equal to groups (7 cages per block). The study began when the birds were placed (day of hatch, i.e., DOT 0) at which time they were allocated to the experimental cages. Only healthy birds were selected (10 birds/cage).
as §3, with “ft” for “ft.”
as §4
Day of hatch male broiler chicks of strain Cobb 500 were obtained from Cobb-Vantress, Cleveland, GA. Sets of ten chicks were randomly selected, group weighed and placed into cages. Number and disposition of all birds not used for allocation were documented. No birds were replaced during the study.
as §5
On Day 14 of the study all birds except Tl orally received a mixed E. acervulina, E. maxima, and E. tenella coccidial inoculum diluted to a 1 ml volume (p.o.). Inoculum level attempted to produce a moderate challenge.
as §6, §7, §8

[6] = system: Eimeria acervulina; test: Cocci Test (Example 6): lesion score and OPG, Eimeria acervulina; conditions: 1.0 lb/t, infected
Text: as §10, §11
as §4, with “mash feed. […]” for “mash feed.”
as §9, §8

[7] = system: Eimeria maxima; test: Cocci Test (Example 6): lesion score and OPG, Eimeria maxima; conditions: 1.0 lb/t, infected
Text: as §10, §11
as §4, with “mash feed. […]” for “mash feed.”
as §9, §8

[8] = system: Eimeria tenella; test: Cocci Test (Example 6): lesion score and OPG, Eimeria tenella; conditions: 1.0 lb/t, infected
Text: as §10, §11
as §4, with “mash feed. […]” for “mash feed.”
as §9, §8

CC[C@@H](C(=O)[C@@H](C)[C@@H](O)[C@H](C)[C@@H]1O[C@@H]([C@@H](CC)C(=O)O)CC[C@@H]1C)[C@H]1O[C@]2(C=C[C@@H](O)[C@]3(CC[C@@](C)([C@H]4CC[C@](O)(CC)[C@H](C)O4)O3)O2)[C@H](C)C[C@@H]1C [Salinomycin]
FCR Day 0-20 ([1]; infected): 1.597bc
FCR Day 0-28 ([1]; infected): 1.625bc
FCR Day 14-20 ([1]; infected): 1.744b
FCR Day 14-28 ([1]; infected): 1.766c
Feed Intake Day 0-20 ([1]; infected): 5.433a
Feed Intake Day 0-28 ([1]; infected): 5.918a
Feed Intake Day 14-20 ([1]; infected): 3.049a
Feed Intake Day 14-28 ([1]; infected): 3.534a
Wt. Gain Day 0-20 ([1]; infected): 0.360b
Wt. Gain Day 0-28 ([1]; infected): 0.376b
Wt. Gain Day 14-20 ([1]; infected): 0.185b
Wt. Gain Day 14-28 ([1]; infected): 0.202b
FCR Day 14 ([1]; infected on Day 14): 1.156a
Feed Intake Day 14 ([1]; infected on Day 14): 2.384a
Wt. Gain Day 14 ([1]; infected on Day 14): 0.218a
Lesion Scores Avg. ([1]; infected, DOT 20, 0 to 4 score): 1.3c
OPG Total Avg. ([1]; infected, Day 20 feces): 9722b OPG
Lesion Scores Eimeria acervulina ([2]; DOT 20, 0 to 4 score): 2.1c
OPG Eimeria acervulina ([2]; Day 20 feces): 4511c OPG
Lesion Scores Eimeria maxima ([3]; DOT 20, 0 to 4 score): 0.9c
OPG Eimeria maxima ([3]; Day 20 feces): 484b OPG
Lesion Scores Eimeria tenella ([4]; DOT 20, 0 to 4 score): 0.7c
OPG Eimeria tenella ([4]; Day 20 feces): 4727c OPG
FCR Day 0-20 ([5]; infected): 1.876ab
FCR Day 0-28 ([5]; infected): 1.832a
FCR Day 14-20 ([5]; infected): 1.839b
FCR Day 14-28 ([5]; infected): 1.789a
Feed Intake Day 0-20 ([5]; infected): 7.064b
Feed Intake Day 0-28 ([5]; infected): 9.852bc
Feed Intake Day 14-20 ([5]; infected): 3.628b
Feed Intake Day 14-28 ([5]; infected): 6.416b
Wt. Gain Day 0-20 ([5]; infected): 0.382b
Wt. Gain Day 0-28 ([5]; infected): 0.718bc
Wt. Gain Day 14-20 ([5]; infected): 0.201b
Wt. Gain Day 14-28 ([5]; infected): 0.537b
FCR Day 14 ([5]; infected on Day 14): 1.491a
Feed Intake Day 14 ([5]; infected on Day 14): 3.436ab
Wt. Gain Day 14 ([5]; infected on Day 14): 0.232b
Lesion Scores Avg. ([5]; infected, DOT 20, 0 to 4 score): 1.5c
OPG Total Avg. ([5]; infected, Day 20 feces): 35.178c OPG
Lesion Scores Eimeria acervulina ([6]; DOT 20, 0 to 4 score): 1.7c
OPG Eimeria acervulina ([6]; Day 20 feces): 30802c OPG
Lesion Scores Eimeria maxima ([7]; DOT 20, 0 to 4 score): 1.7b
OPG Eimeria maxima ([7]; Day 20 feces): 2608a OPG
Lesion Scores Eimeria tenella ([8]; DOT 20, 0 to 4 score): 1.1b
OPG Eimeria tenella ([8]; Day 20 feces): 1768b OPG
